Experimental data published in patent US20230355618A1, “RAF INHIBITOR FOR TREATING LOW GRADE GLIOMA” (Day One Biopharmaceuticals, Inc., priority 2020, published 2023).

What was measured:
[1] = Phase 1 pediatric dose-escalation trial: pharmacokinetic studies (exposure, AUC0-∞); type: in vivo, human; details: for AUC(0-inf): human, plasma, oral
Method: (§1) A 3+3 design is used. Based on the adult dose of 350 mg/m^2 by mouth every week (using a typical adult BSA of 1.7 m^2), the starting dose for the pediatric study was 80% of the adult RP2D, which was 280 mg/m^2 by mouth every week. Doses were escalated in an inter-patient stepwise fashion until dose-limiting toxicities (DLTs) were observed. The three different dose levels: 280 mg/m^2, 350 mg/m^2, and […].
(§2) Treatment began at 80% of the adult dose (i.e., 280 mg/m^2 by mouth once weekly based on the following calculation: • An adult dose of 600 mg once weekly and an average adult BSA (m^2) of 1.73 m^2=350 mg/m^2 • 80% of 350 mg/m^2=280 mg/m^2 starting dose
(§3) The dose escalation scheme is described in Table 1-A. The initial phase included 3 dose escalation levels to a maximum of 530 mg/m^2/dose weekly.
Pharmacokinetic studies were performed on all patients in the phase I component of the trial as venous access allowed. The initial phase 1 included 3 dose escalation levels to a maximum of 530 mg/m^2/dose weekly. PK studies were also conducted to evaluate phosphorylated ERK in the peripheral blood mononuclear cells.

[2] = system: pediatric low grade glioma (pLGG); experiment: Phase 1 pediatric dose-escalation trial: tumor response by RANO criteria; type: in vivo, human; details: for Best RANO Response (T1-Gad): pLGG
Method: as §1, §2, §3
FIG. 2 illustrates Phase 1 trial data of these nine individual pediatric LGG (pLGG) patient responses to Compound A over time. […] The median time to response was 10.5 weeks. Two patients achieved a complete response that was maintained throughout the dosing period of up to two years.
Two of eight patients with a RAF fusion had prolonged stable disease.

[3] = pLGG patients with a RAF fusion, Phase 1

- Dose normalized AUC0-∞ ([1]; Subject-1 (PNOC014-01), predicted exposure at 530 mg/m^2 (predicted dose 456, 21 mg/kg), original dose cohort 280 mg/m^2): 1268 µg·h/L
- Dose normalized AUC0-∞ ([1]; Subject-2 (PNOC014-02), predicted exposure at 530 mg/m^2 (predicted dose 530, 19 mg/kg), original dose cohort 280 mg/m^2): 682 µg·h/L
- Dose normalized AUC0-∞ ([1]; Subject-3 (PNOC014-03), predicted exposure at 530 mg/m^2 (predicted dose 419, 23 mg/kg), original dose cohort 280 mg/m^2): 614 µg·h/L
- Dose normalized AUC0-∞ ([1]; Subject-4 (PNOC014-04), predicted exposure at 530 mg/m^2 (predicted dose 906, 13 mg/kg), original dose cohort 350 mg/m^2): 705 µg·h/L
- Dose normalized AUC0-∞ ([1]; Subject-5 (PNOC014-05), predicted exposure at 530 mg/m^2 (predicted dose 906, 14 mg/kg), original dose cohort 350 mg/m^2): 653 µg·h/L
- Dose normalized AUC0-∞ ([1]; Subject-6 (PNOC014-06), predicted exposure at 530 mg/m^2 (predicted dose 848, 16 mg/kg), original dose cohort 350 mg/m^2): 640 µg·h/L
- Dose normalized AUC0-∞ ([1]; Subject-7 (PNOC014-07), predicted exposure at 530 mg/m^2 (predicted dose 784, 15 mg/kg), original dose cohort 420 mg/m^2): 701 µg·h/L
- Dose normalized AUC0-∞ ([1]; Subject-9 (PNOC014-09), predicted exposure at 530 mg/m^2 (predicted dose 376, 24 mg/kg), original dose cohort 420 mg/m^2): 1122 µg·h/L
- AUC(0-inf) ([1]; 280 mg/m^2, Subject-1 (PNOC014-01), 21.9 kg, BSA 0.86 m^2, dose cohort 280 mg/m^2 by mouth once weekly, dose given 240 mg (11.0 mg/kg)): 670 ng·h/mL
- AUC(0-inf) ([1]; 280 mg/m^2, Subject-2 (PNOC014-02), 28.2 kg, BSA 1.0 m^2, dose cohort 280 mg/m^2 by mouth once weekly, dose given 280 mg (9.9 mg/kg)): 361 ng·h/mL
- AUC(0-inf) ([1]; 280 mg/m^2, Subject-3 (PNOC014-03), 18.1 kg, BSA 0.79 m^2, dose cohort 280 mg/m^2 by mouth once weekly, dose given 220 mg (12.2 mg/kg)): 324 ng·h/mL
- AUC(0-inf) ([1]; 350 mg/m^2, Subject-4 (PNOC014-04), 69.6 kg, BSA 1.71 m^2, dose cohort 350 mg/m^2 by mouth once weekly, dose given 600 mg (8.6 mg/kg)): 466 ng·h/mL
- AUC(0-inf) ([1]; 350 mg/m^2, Subject-5 (PNOC014-05), 66.5 kg, BSA 1.71 m^2, dose cohort 350 mg/m^2 by mouth once weekly, dose given 600 mg (9.0 mg/kg)): 431 ng·h/mL
- AUC(0-inf) ([1]; 350 mg/m^2, Subject-6 (PNOC014-06), 53.6 kg, BSA 1.6 m^2, dose cohort 350 mg/m^2 by mouth once weekly, dose given 560 mg (10.4 mg/kg)): 423 ng·h/mL
- AUC(0-inf) ([1]; 420 mg/m^2, Subject-7 (PNOC014-07), 53.7 kg, BSA 1.48 m^2, dose cohort 420 mg/m^2 by mouth once weekly, dose given 620 mg (11.5 mg/kg)): 556 ng·h/mL
- AUC(0-inf) ([1]; 420 mg/m^2, Subject-9 (PNOC014-09), 15.6 kg, BSA 0.71 m^2, dose cohort 420 mg/m^2 by mouth once weekly, dose given 300 mg (19.2 mg/kg)): 889 ng·h/mL
Compound: C[C@@H](NC(=O)c1ncnc(N)c1Cl)c1ncc(C(=O)Nc2cc(C(F)(F)F)c(Cl)cn2)s1 [Compound A, (R)-2-(1-(6-amino-5-chloropyrimidine-4-carboxamido)ethyl)-N-(5-chloro-4-(trifluoromethyl)pyridin-2-yl)thiazole-5-carboxamide]
- patients who did not respond ([2]; NF1-associated pLGG, Phase 1): One
- Best RANO Response (T1-Gad) ([2]; Subject-1 (PNOC014-01), BSA 0.86 m^2, dose cohort 280 mg/m^2 once weekly): CR (CR = −100%)
- Best RANO Response (T1-Gad) ([2]; Subject-2 (PNOC014-02), BSA 1.0 m^2, dose cohort 280 mg/m^2 once weekly): PR (PR = −50% or more reduction from baseline)
- Best RANO Response (T1-Gad) ([2]; Subject-3 (PNOC014-03), BSA 0.79 m^2, dose cohort 280 mg/m^2 once weekly): PR (PR = −50% or more reduction from baseline)
- Best RANO Response (T1-Gad) ([2]; Subject-4 (PNOC014-04), BSA 1.71 m^2, dose cohort 350 mg/m^2 once weekly): PD (PD = ≥25% growth from nadir)
- Best RANO Response (T1-Gad) ([2]; Subject-5 (PNOC014-05), BSA 1.71 m^2, dose cohort 350 mg/m^2 once weekly): SD (SD = between −50% and +25%)
- Best RANO Response (T1-Gad) ([2]; Subject-6 (PNOC014-06), BSA 1.6 m^2, dose cohort 350 mg/m^2 once weekly): PD (PD = ≥25% growth from nadir)
- Best RANO Response (T1-Gad) ([2]; Subject-7 (PNOC014-07), BSA 1.48 m^2, dose cohort 420 mg/m^2 once weekly): SD (SD = between −50% and +25%)
- Best RANO Response (T1-Gad) ([2]; Subject-9 (PNOC014-09), BSA 0.71 m^2, dose cohort 420 mg/m^2 once weekly): PR (PR = −50% or more reduction from baseline)
- patients achieving a complete response maintained throughout the dosing period of up to two years ([2]; nine pLGG patients, Phase 1): Two
- patients achieving prolonged stable disease ([2]; nine pLGG patients, Phase 1): two
- patients who did not achieve a response ([2]; nine pLGG patients, Phase 1): two
- patients with a partial response ([2]; nine pLGG patients, Phase 1): Three
- patients with shrinkage in lesion size in the first radiologic images after initiation of dosing ([2]; nine pLGG patients, Phase 1): six of nine
- median time to response ([2]; nine pLGG patients, Phase 1, 280-420 mg/m^2 once weekly): 10.5 weeks
- patients who did not respond [2, 3]: One
- patients with complete or partial response per RANO criteria (≥50% decrease compared with baseline) [2, 3]: Five of the eight
- patients with prolonged stable disease [2, 3]: Two of eight
